According to publication PMC12040169 (PLOS Biology, 2025):

Experiment: in vitro
Settings: human, hela cells, % viability

COc1cccc(C(=O)N2CCC[C@@H](N)[C@@H]2c2ccccc2F)c1 [CBK283457]
viability at 28.5 h, 10 µM: 88.1%

CC(C)(C#N)C(C)(C)c1nnn[nH]1 [CBK067072]
viability at 28.5 h, 10 µM: 85.1%

CS(=O)(=O)N1CCN(Cc2cc(Br)ccc2O)CC1 [CBK263620G]
viability at 28.5 h, 10 µM: 93.9%

O=C(NCCCc1ccccn1)c1cc(-c2cccs2)no1 [CBK282652]
viability at 28.5 h, 10 µM: 63.9%

N#Cc1c(NC(=O)c2cc(S(=O)(=O)N3CCOCC3)c(Cl)cc2Cl)sc2c1CCCC2 [CBK263204]
viability at 28.5 h, 10 µM: 95.7%

COc1ccccc1C/C(N)=N/OC(=O)COc1ccc2ccccc2c1 [CBK263730]
viability at 28.5 h, 10 µM: 89.7%

O=C(N/N=C/c1cccc(OC(=O)c2cccc(Br)c2)c1)c1ccncc1 [CBK262249]
viability at 28.5 h, 10 µM: 112%

CC(C)(C)C1=CC2=NC3(CCC3)C3C[C@@](C)(O)[C@@H](O)[C@@H]3N2O1 (stereo partly drawn) [CBK303263]
viability at 28.5 h, 10 µM: 112%

Cc1nc(CN2CCN(C(=O)C3C4CCCCC43)CC2)cs1 (stereo not drawn) [CBK281607]
viability at 28.5 h, 10 µM: 93.8%

O=C(CC1CC1)NC(c1ccccc1)c1ccccn1 (stereo not drawn) [CBK144108]
viability at 28.5 h, 10 µM: 103%

Cc1cc(NC(=O)c2sc3nc4c(cc3c2N)N2CCC4CC2)no1 [CBK270217]
viability at 28.5 h, 10 µM: 100%

C[C@]12CN(Cc3ccccc3)C[C@H]1NC(=O)c1ccccc1C2O (stereo partly drawn) [CBK282302]
viability at 28.5 h, 10 µM: 112%

O=C(O)CCCCn1c2c(c3ccccc31)CCCC2 [CBK000253]
viability at 28.5 h, 10 µM: 98.9%

O=C(O)CCC(=O)Nc1ccc(-c2ccc([N+](=O)[O-])cc2)cc1 [CBK261637]
viability at 28.5 h, 10 µM: 105%

Cc1nc2ccccc2c(=O)n1CC(=O)NCc1ccccc1 [CBK072830]
viability at 28.5 h, 10 µM: 91.9%

COc1ccc(CCn2nc(C(=O)O)c3ccccc32)cc1 [CBK093525]
viability at 28.5 h, 10 µM (bulk resorufin, single well): 85%

CCOC(=O)Nc1ccc2c(c1)N(C(=O)CN1CCN(C)CC1)c1ccccc1CC2 [CBK278194C]
viability at 28.5 h, 10 µM: 88.7%

Cc1ccc(C(=O)N2CC=C(c3c[nH]c4ncccc34)CC2)cn1 [CBK297889]
viability at 28.5 h, 10 µM: 103%

CCC(=O)N1CCC2(CC1)CNC(=O)c1cc(C)ccc1O2 [CBK282468]
viability at 28.5 h, 10 µM: 85.2%

COc1ccc(N2CCN(Cc3cc([N+](=O)[O-])ccc3Cl)CC2)cc1 [CBK261571]
viability at 28.5 h, 10 µM: 88.9%

Nc1nc(=O)n([C@@H]2O[C@H](CO)[C@H](O)C2O)cc1CO (stereo partly drawn) [CBK201160]
viability at 28.5 h, 10 µM: 92.7%

Cc1nc(N)c(CNC2CCCCC2)c(O)n1 [CBK019809]
viability at 28.5 h, 10 µM: 112%

COC1C(O)C(CO)OC1n1ccc(NC(=O)c2ccccc2)nc1=O (stereo not drawn) [CBK201212]
viability at 28.5 h, 10 µM: 94.8%

O=C(NC(c1ccccn1)c1cccs1)C1CCN(S(=O)(=O)c2ccc(C(F)(F)F)cc2)CC1 (stereo not drawn) [CBK060153]
viability at 28.5 h, 10 µM: 92.4%

O=C(O)CCC(=O)Nc1ccccc1C(=O)O [CBK261325]
viability at 28.5 h, 10 µM: 91.1%

O=C(CCOc1ccccc1)Nc1cnc(-c2ccc(F)cc2)c(-c2ccco2)n1 [CBK036967]
viability at 28.5 h, 10 µM: 93.1%

CSc1ncc(C(=O)NC2CCCC2)c(NC2CCCC2)n1 [CBK291223]
viability at 28.5 h, 10 µM: 91.3%

Cc1cc(C(C)(C)C)ccc1OCCNCCN [CBK265097G]
viability at 28.5 h, 10 µM: 91.3%

Cc1ccc(N2CCCC2=O)cc1S(=O)(=O)NC1C2CCCCC21 (stereo not drawn) [CBK282840]
viability at 28.5 h, 10 µM: 69%

O=C1c2ccccc2C(=O)N1CCc1nn2c(-c3cccnc3)nnc2s1 [CBK269793]
viability at 28.5 h, 10 µM: 97.9%

O=c1oc(-c2ccncc2)nn1Cc1ccccc1F [CBK283692]
viability at 28.5 h, 10 µM: 89.1%

CCn1cc(C(=O)O)c(=O)c2cc(F)c(N3CCN(C(=S)Nc4cc(OC)ccc4OC)CC3)cc21 [CBK265831]
viability at 28.5 h, 10 µM: 85.7%

N#CC1(c2ccccc2)CCN(C(=O)c2ccc3c(c2)no[n+]3[O-])CC1 [CBK091405]
viability at 28.5 h, 10 µM (bulk resorufin, single well): 92.2%

CCCC/C=C/c1nccnc1NCCCO [CBK038006]
viability at 28.5 h, 10 µM: 102%

CCc1c(C)nc2ccccc2c1S(=O)(=O)CCC(=O)OC [CBK155468T]
viability at 28.5 h, 10 µM: 96.8%

CCOC(=O)c1cccc(NS(=O)(=O)c2ccc(Br)cc2)c1 [CBK034346]
viability at 28.5 h, 10 µM: 97.7%

Cc1csc(CC(C)n2cc(Cl)cn2)n1 (stereo not drawn) [CBK304797]
viability at 28.5 h, 10 µM: 99.8%

CS(=O)(=O)NC[C@H]1O[C@@H](Cc2nc(-c3ccc(F)cc3)no2)[C@H](O)[C@@H]1O [CBK288906]
viability at 28.5 h, 10 µM: 95.3%

Oc1nccc(Oc2ccnc(Cl)n2)n1 [CBK000010]
viability at 28.5 h, 10 µM: 98.5%

CS(=O)(=O)c1cc(Br)cc(C(=O)NCCNc2cnccn2)c1F [CBK305731]
viability at 28.5 h, 10 µM: 85.8%

O=C(CCSc1ccc(Cl)cc1)NCCN1CCOCC1 [CBK269352]
viability at 28.5 h, 10 µM: 98.2%

O=C(NO)c1nccnc1-c1ccc(COc2ccccc2)cc1 [CBK050841]
viability at 28.5 h, 10 µM: 96.4%

CC1=CC(C)(NC(N)=O)NC(=S)N1 (stereo not drawn) [CBK020817]
viability at 28.5 h, 10 µM: 112%

Cc1c(C#N)sc(-c2nc[nH]n2)c1C [CBK005952]
viability at 28.5 h, 10 µM: 77.6%

CCN(CC)C(=O)CN1CCC(Oc2nccnc2OC2CCCCC2)CC1 [CBK082866T]
viability at 28.5 h, 10 µM: 87%
